These are literature values, as cited in patent US9636305B2, “Antiemetic extended release solid dosage forms” (RedHill Biopharma Ltd., priority 2013, dated 2017).

The conditions of this series: scale of Pliska et al., J. Chromatog. 216, 79, 1981.
In the case of `N[C@@H](CC(=O)O)C(=O)O` [aspartic acid], the hydropathy value is recorded as −2.15. Turning to `NCC(=O)O` [glycine], the hydropathy value is given as 0. Regarding `CC[C@H](C)[C@H](N)C(=O)O` [iso-leucine], the hydropathy value is given as 1.83.
